In the supplement of paper PMC10307832:

Key:
Experiment in all cases: relative viability (nuclei count vs DMSO), 5 days (fraction); higher = more cells survive
Wnt-C59 + Dasatinib = compound: CC1=NC=CC(=C1)C2=CC=C(C=C2)CC(=O)NC3=CC=C(C=C3)C4=CN=CC=C4 [Wnt-C59] + Cc1nc(Nc2ncc(C(=O)Nc3c(C)cccc3Cl)s2)cc(N2CCN(CCO)CC2)n1 [Dasatinib] (partner 0.075 µM)
Procedure, shortened: (§1)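 Relative viability equals treated-well nuclei counts divided by vehicle-well nuclei counts. Counts came from 4× images of lung cancer cell lines grown in 1536-well plates for 5 days after pin-tool dosing on the day after seeding. Dosing used one drug alone or a fixed anchor-drug dose plus five library-drug doses (not always all listed) in √10 steps, and values are medians of duplicate plates.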

Wnt-C59 + Decitabine = compound: CC1=NC=CC(=C1)C2=CC=C(C=C2)CC(=O)NC3=CC=C(C=C3)C4=CN=CC=C4 [Wnt-C59] + Nc1ncn([C@H]2C[C@H](O)[C@@H](CO)O2)c(=O)n1 [Decitabine] (partner 2 µM)
Procedure, shortened: as §1

Lapatinib + Navitoclax = compound: CS(=O)(=O)CCNCc1ccc(-c2ccc3ncnc(Nc4ccc(OCc5cccc(F)c5)c(Cl)c4)c3c2)o1 [Lapatinib] + CC1(C)CCC(c2ccc(Cl)cc2)=C(CN2CCN(c3ccc(C(=O)NS(=O)(=O)c4ccc(N[C@H](CCN5CCOCC5)CSc5ccccc5)c(S(=O)(=O)C(F)(F)F)c4)cc3)CC2)C1 [Navitoclax] (partner 0.5 µM)
Procedure, shortened: as §1

Lapatinib + Phenformin = compound: CS(=O)(=O)CCNCc1ccc(-c2ccc3ncnc(Nc4ccc(OCc5cccc(F)c5)c(Cl)c4)c3c2)o1 [Lapatinib] + N=C(N)NC(=N)NCCc1ccccc1 [Phenformin] (partner 250 µM)
Procedure, shortened: as §1

Cell Line	relative viability (Wnt-C59 + Dasatinib; first compound 0.001 µM)	relative viability (Wnt-C59 + Dasatinib; first compound 0.01 µM)	relative viability (Wnt-C59 + Dasatinib; first compound 0.03162 µM)	relative viability (Wnt-C59 + Dasatinib; first compound 0.1 µM)	relative viability (Wnt-C59 + Decitabine; first compound 0.001 µM)	relative viability (Wnt-C59 + Decitabine; first compound 0.01 µM)	relative viability (Wnt-C59 + Decitabine; first compound 0.03162 µM)	relative viability (Wnt-C59 + Decitabine; first compound 0.1 µM)	relative viability (Lapatinib + Navitoclax; first compound 0.02 µM)	relative viability (Lapatinib + Navitoclax; first compound 0.06325 µM)	relative viability (Lapatinib + Navitoclax; first compound 0.2 µM)	relative viability (Lapatinib + Navitoclax; first compound 0.6325 µM)	relative viability (Lapatinib + Navitoclax; first compound 2 µM)	relative viability (Lapatinib + Phenformin; first compound 0.02 µM)	relative viability (Lapatinib + Phenformin; first compound 0.06325 µM)	relative viability (Lapatinib + Phenformin; first compound 0.2 µM)	relative viability (Lapatinib + Phenformin; first compound 0.6325 µM)	relative viability (Lapatinib + Phenformin; first compound 2 µM)
RERF-LC-KJ	0.866	0.847	1.04	0.79	0.711	0.727	0.742	0.735	0.933	0.894	0.755	0.888	0.592	0.406	0.39	0.469	0.35	0.369
EMC-BAC-2	0.327	0.36	0.34	0.341	0.932	0.914	0.89	0.89	1.05	0.984	1.09	1.02	0.968	0.422	0.407	0.532	0.549	0.499
NCI-H522	0.92	0.752	0.875	0.882	0.707	0.739	0.782	0.666	–	–	–	–	–	–	0.557	0.554	0.674	0.546
NCI-H1651	0.385	0.421	0.405	0.447	0.671	0.675	0.613	0.597	1.05	0.968	0.971	0.899	0.906	0.35	0.25	0.34	0.308	0.374
IA-LM	–	–	–	–	–	–	–	–	0.769	0.794	0.817	0.728	0.713	–	–	–	–	–
NCI-H520	0.217	0.189	0.208	0.174	0.48	0.532	0.537	0.504	0.951	1.06	1.08	1.25	0.972	0.516	0.596	0.542	0.653	0.638
NCI-H1793	0.431	–	0.468	0.355	0.458	0.461	0.615	0.521	–	–	–	0.329	0.292	–	0.313	0.265	0.329	0.225
NCI-H647	0.193	0.166	0.2	0.152	0.379	0.456	0.393	0.288	–	1.14	1.05	1.04	0.963	0.352	0.416	0.517	0.631	0.219
HCC-44	–	–	–	–	1.01	0.963	0.95	0.939	0.874	0.89	0.995	0.949	0.768	–	0.189	0.211	0.172	0.235
HCC-827	0.386	0.305	0.366	0.428	0.399	0.331	0.385	0.334	1	0.944	1.08	0.974	0.981	0.383	0.398	0.412	0.414	0.335
NCI-H2170	0.549	0.354	0.601	0.555	0.47	0.516	0.506	0.474	0.546	0.393	0.287	0.218	0.184	0.351	0.408	0.455	0.359	0.198
Calu-6	–	–	–	–	–	–	–	–	0.844	0.812	0.91	0.819	0.764	–	–	–	–	–
HCC-366	0.678	0.621	0.594	0.487	0.317	0.427	0.342	0.387	–	1.02	1.08	1.03	0.914	–	0.642	0.633	0.594	0.559
NCI-H2405	0.207	0.232	0.221	0.233	0.793	0.756	0.786	0.656	–	0.769	0.868	0.881	0.72	0.321	0.278	0.405	0.372	0.357
NCI-H1648	–	–	–	–	0.581	0.405	0.496	0.561	–	–	–	–	–	–	–	–	–	–
LCLC-97TM1	0.764	0.75	0.772	0.889	0.262	0.266	0.227	0.238	–	–	0.355	0.327	0.33	–	–	0.462	0.407	0.471
EPLC-272H	0.399	0.269	0.399	0.36	0.443	0.369	0.472	0.364	–	1.13	0.869	0.991	0.961	–	–	0.243	0.266	0.241
NCI-H1755	0.429	0.405	0.436	0.41	0.696	0.728	0.725	0.691	0.974	1.02	0.97	1.01	0.936	0.409	0.595	0.642	0.59	0.59
NCI-H1437	0.378	0.308	0.384	0.495	0.584	0.562	0.559	0.614	1.09	1.08	1.11	1.03	1	0.289	0.278	0.258	0.303	0.253
PC-3 [JPC-3]	1.01	1.05	1.13	1.07	0.853	0.847	0.849	0.841	–	0.797	0.779	0.885	0.689	0.452	0.468	0.457	0.521	0.431
NCI-H727	0.298	–	0.363	0.388	0.91	0.902	0.901	0.997	0.388	0.341	0.401	0.4	0.32	–	–	0.536	0.511	0.508
NCI-H1666	0.803	0.84	0.836	0.795	0.753	0.73	0.732	0.767	0.794	0.724	0.737	0.464	0.217	0.555	0.545	0.592	0.611	0.461
NCI-H1792	0.753	0.771	0.992	0.718	0.636	0.524	0.536	0.506	0.615	0.589	0.52	0.586	0.645	–	–	0.219	0.207	0.289

Cell Line	relative viability (Wnt-C59 + Dasatinib; first compound 0.001 µM)	relative viability (Wnt-C59 + Dasatinib; first compound 0.01 µM)	relative viability (Wnt-C59 + Dasatinib; first compound 0.03162 µM)	relative viability (Wnt-C59 + Dasatinib; first compound 0.1 µM)	relative viability (Wnt-C59 + Decitabine; first compound 0.001 µM)	relative viability (Wnt-C59 + Decitabine; first compound 0.01 µM)	relative viability (Wnt-C59 + Decitabine; first compound 0.03162 µM)	relative viability (Wnt-C59 + Decitabine; first compound 0.1 µM)	relative viability (Lapatinib + Navitoclax; first compound 0.02 µM)	relative viability (Lapatinib + Navitoclax; first compound 0.06325 µM)	relative viability (Lapatinib + Navitoclax; first compound 0.2 µM)	relative viability (Lapatinib + Navitoclax; first compound 0.6325 µM)	relative viability (Lapatinib + Navitoclax; first compound 2 µM)	relative viability (Lapatinib + Phenformin; first compound 0.02 µM)	relative viability (Lapatinib + Phenformin; first compound 0.06325 µM)	relative viability (Lapatinib + Phenformin; first compound 0.2 µM)	relative viability (Lapatinib + Phenformin; first compound 0.6325 µM)	relative viability (Lapatinib + Phenformin; first compound 2 µM)
LCLC-103H	0.509	0.471	0.493	0.516	0.729	0.758	0.785	0.698	–	–	–	–	–	0.276	0.271	0.316	0.363	0.382
BEN	0.329	0.3	0.35	0.385	0.667	0.741	0.807	0.782	0.0643	0.0706	0.061	0.0751	0.0557	–	0.301	0.26	0.241	0.229
COR-L 105	0.275	0.357	0.308	0.304	0.613	0.618	0.663	0.586	0.701	0.744	0.77	0.574	0.302	0.486	0.336	0.418	0.289	0.275
LC-2-ad	0.696	0.73	0.53	0.559	0.756	0.714	0.927	0.772	–	0.415	0.446	0.394	0.264	–	0.438	0.551	0.478	0.519
NCI-H358	0.177	0.154	0.145	0.152	0.223	0.207	0.295	0.213	–	–	–	–	–	0.25	0.107	0.222	0.215	0.171
HARA	0.249	0.208	0.293	0.32	0.604	0.455	0.543	0.587	1.13	1.18	1.15	1.08	0.938	–	0.307	0.434	0.399	0.337
CAL-12T	0.505	0.391	0.475	0.437	–	–	–	–	1.18	1.23	1.32	1.03	0.724	–	0.474	0.5	0.404	0.337
NCI-H1975	0.412	0.31	0.349	0.447	0.419	0.385	0.423	0.38	0.993	1.09	1.04	0.918	0.867	0.413	0.362	0.385	0.399	0.385
PC-14	0.309	0.257	0.242	0.241	0.246	0.283	0.223	0.243	0.956	0.991	0.958	0.985	0.839	–	0.642	0.523	0.461	0.337
NCI-H1944	0.24	0.218	0.195	0.179	0.501	0.459	0.51	0.43	–	–	0.885	0.864	0.789	0.178	0.14	0.188	0.193	0.186
ABC-1	0.509	0.605	0.506	0.592	1.08	1.14	1.05	0.938	–	–	–	–	–	0.25	0.25	0.223	0.215	0.21
NCI-H661	0.914	0.736	0.907	0.872	0.542	0.516	0.576	0.606	–	–	–	–	–	0.273	0.263	0.273	0.265	0.268
A549	–	–	–	–	0.222	0.247	0.247	0.225	1.12	1.13	1.22	1.21	1.21	–	–	0.192	0.137	0.112
NCI-H2228	0.503	0.429	0.615	0.524	–	–	–	–	0.838	0.807	0.809	1.28	0.912	0.33	0.25	0.245	0.292	0.325
NCI-H650	0.43	0.512	0.457	0.526	0.346	0.286	0.308	0.329	–	–	–	–	–	–	0.467	0.428	0.456	0.473
NCI-H1299	–	–	–	–	–	–	–	–	1.05	1.06	1.05	1.01	1.06	–	–	–	–	–
NCI-H2342	0.326	0.326	0.358	0.337	0.713	0.787	0.748	0.692	–	–	–	–	–	0.511	0.557	0.574	0.51	0.489
SW 900	0.545	0.708	0.768	0.624	0.49	0.43	0.492	0.402	–	–	–	–	–	–	0.484	0.554	0.554	0.531
NCI-H1703	–	–	–	–	–	–	–	–	0.908	0.943	1.03	1.33	0.996	–	–	–	–	–
NCI-H1623	0.507	0.488	0.572	0.625	–	–	–	–	–	–	–	–	–	0.546	0.494	–	0.659	0.261
NCI-H1563	0.456	0.509	0.475	0.468	–	–	–	–	–	–	–	–	–	0.626	0.645	0.69	0.76	0.688
EBC-1	–	–	–	–	–	–	–	–	0.459	0.361	0.457	0.337	0.265	–	–	–	–	–
